Reference: the NIST ThermoML archive (doi:10.1016/j.jct.2015.06.021)
“And” between values parts separate entries of the source, which are not always exact repeats. Identical values can stand only once. ± gives the expanded uncertainty stated by the source.

Columns and labels:
[1] = Crystal; for vapor or sublimation pressure: Calculated from knudsen effusion weight loss; for Normal melting temperature: DTA
[2] = Molar enthalpy of transition or fusion; settings: Crystal; DSC

## c1ccc2cc3ccccc3cc2c1 [anthracene]
[1]; 301.3 K
  vapor or sublimation pressure: 1.3e-06 ± 1e-07 kPa
[1]; 303.3 K
  vapor or sublimation pressure: 1.8e-06 ± 2e-07 kPa
[1]; 303.6 K
  vapor or sublimation pressure: 1.7e-06 ± 2e-07 kPa
[1]; 305.7 K
  vapor or sublimation pressure: 2.5e-06 ± 3e-07 kPa
[1]; 305.9 K
  vapor or sublimation pressure: 2.2e-06 ± 2e-07 kPa
[1]; 307.8 K
  vapor or sublimation pressure: 3.2e-06 ± 6e-07 kPa
[1]; 308.1 K
  vapor or sublimation pressure: 3.9e-06 ± 6e-07 kPa
[1]; 308.2 K
  vapor or sublimation pressure: 3.3e-06 ± 3e-07 kPa
[1]; 310 K
  vapor or sublimation pressure: 4.3e-06 ± 4e-07 kPa
[1]; 310.2 K
  vapor or sublimation pressure: 4.2e-06 ± 5e-07 kPa
[1]; 310.5 K
  vapor or sublimation pressure: 4.5e-06 ± 5e-07 kPa
[1]; 313.3 K
  vapor or sublimation pressure: 6.5e-06 ± 6e-07 kPa
[1]; 314.5 K
  vapor or sublimation pressure: 7.3e-06 ± 7e-07 kPa
[1]; 314.7 K
  vapor or sublimation pressure: 7.4e-06 ± 7e-07 kPa
[1]; 314.9 K
  vapor or sublimation pressure: 7.6e-06 ± 8e-07 kPa
[1]; 317.6 K
  vapor or sublimation pressure: 1.05e-05 ± 1e-06 kPa
[1]; 318.8 K
  vapor or sublimation pressure: 1.1e-05 ± 1.1e-06 kPa
[1]; 319.2 K
  vapor or sublimation pressure: 1.28e-05 ± 1.5e-06 kPa
[1]; 322.3 K
  vapor or sublimation pressure: 1.81e-05 ± 1.8e-06 kPa
[1]; 323.1 K
  vapor or sublimation pressure: 2.05e-05 ± 2e-06 kPa and 1.74e-05 ± 1.7e-06 kPa
[1]; 323.2 K
  vapor or sublimation pressure: 2.12e-05 ± 2.1e-06 kPa
[1]; 323.8 K
  vapor or sublimation pressure: 2.09e-05 ± 2e-06 kPa
[1]; 326.6 K
  vapor or sublimation pressure: 2.96e-05 ± 2.9e-06 kPa
[1]; 328 K
  vapor or sublimation pressure: 3.16e-05 ± 3.1e-06 kPa
[1]; 328.6 K
  vapor or sublimation pressure: 3.48e-05 ± 3.5e-06 kPa
[1]; 331.5 K
  vapor or sublimation pressure: 4.92e-05 ± 4.9e-06 kPa
[1]; 333.1 K
  vapor or sublimation pressure: 6.27e-05 ± 6.2e-06 kPa
[1]; 333.3 K
  vapor or sublimation pressure: 6.36e-05 ± 6.2e-06 kPa
[1]; 333.7 K
  vapor or sublimation pressure: 6.31e-05 ± 6.1e-06 kPa
[1]; 336.3 K
  vapor or sublimation pressure: 8.09e-05 ± 7.9e-06 kPa
[1]; 338.2 K
  vapor or sublimation pressure: 8.49e-05 ± 8.3e-06 kPa
[1]; 338.8 K
  vapor or sublimation pressure: 0.0001028 ± 1.2e-05 kPa and 9.99e-05 ± 1.1e-05 kPa
[1]; 343.1 K
  vapor or sublimation pressure: 0.000173 ± 1.8e-05 kPa and 0.0001738 ± 1.8e-05 kPa
[1]; 343.4 K
  vapor or sublimation pressure: 0.0001646 ± 1.7e-05 kPa and 0.0001599 ± 1.8e-05 kPa
[1]; 348.1 K
  vapor or sublimation pressure: 0.0002492 ± 2.5e-05 kPa
[1]; 348.2 K
  vapor or sublimation pressure: 0.0002587 ± 2.6e-05 kPa
[1]; 353.2 K
  vapor or sublimation pressure: 0.0004347 ± 4.3e-05 kPa
[1]; 363.2 K
  vapor or sublimation pressure: 0.001018 ± 0.00012 kPa
[1]; 373.2 K
  vapor or sublimation pressure: 0.002158 ± 0.00026 kPa
[1]
  Normal melting temperature: 217 ± 2 °C
[2]
  Molar enthalpy of transition or fusion: 27.4 ± 3.9 kJ/mol

## c1ccc2c(c1)ccc1ccccc12 [phenanthrene]
[1]; 296.2 K
  vapor or sublimation pressure: 1.61e-05 ± 1.6e-06 kPa
[1]; 297.2 K
  vapor or sublimation pressure: 1.86e-05 ± 1.9e-06 kPa
[1]; 298.2 K
  vapor or sublimation pressure: 2.1e-05 ± 2.1e-06 kPa
[1]; 299.2 K
  vapor or sublimation pressure: 2.43e-05 ± 2.4e-06 kPa
[1]; 300.2 K
  vapor or sublimation pressure: 2.7e-05 ± 2.7e-06 kPa
[1]; 301.2 K
  vapor or sublimation pressure: 3e-05 ± 3e-06 kPa
[1]; 302.2 K
  vapor or sublimation pressure: 3.43e-05 ± 3.4e-06 kPa
[1]; 303.2 K
  vapor or sublimation pressure: 3.83e-05 ± 3.8e-06 kPa
[1]; 304.2 K
  vapor or sublimation pressure: 4.3e-05 ± 4.3e-06 kPa
[1]; 305.2 K
  vapor or sublimation pressure: 4.88e-05 ± 4.9e-06 kPa
[1]; 306.2 K
  vapor or sublimation pressure: 5.4e-05 ± 5.4e-06 kPa
[1]; 307.2 K
  vapor or sublimation pressure: 6.08e-05 ± 6e-06 kPa
[1]; 308.2 K
  vapor or sublimation pressure: 6.73e-05 ± 6.7e-06 kPa
[1]; 309.2 K
  vapor or sublimation pressure: 7.49e-05 ± 7.4e-06 kPa
[1]; 310.2 K
  vapor or sublimation pressure: 8.41e-05 ± 8.3e-06 kPa
[1]; 311.2 K
  vapor or sublimation pressure: 9.35e-05 ± 9.3e-06 kPa
[1]; 312.2 K
  vapor or sublimation pressure: 0.0001041 ± 1e-05 kPa
[1]; 313.2 K
  vapor or sublimation pressure: 0.0001151 ± 1.1e-05 kPa
[1]
  Normal melting temperature: 99 ± 2 °C
[2]
  Molar enthalpy of transition or fusion: 15.1 ± 2.2 kJ/mol
